A short description of this data set: wn = mass fraction of the nth substance listed. The settings on record: 88.35 kPa, Liquid; for viscosity: Capillary tube (Ostwald / Ubbelohde) method.

Numbers after ± are expanded uncertainties.

As a reminder, the viscosity is the resistance of a fluid to flow. By mass density is commonly meant the mass of a sample divided by its volume. In the case of `O=P([O-])(O)O.[K+]` [monopotassium phosphate] + O, the viscosity (298.15 K, w1 = 0.2075) came out at 1.198 ± 0.12 mPa·s and the viscosity (313.15 K, w1 = 0.2579) stood at 1.013 ± 0.1 mPa·s. The mass density (298.15 K, Weighing bottle method, w1 = 0.2075) was found to be 1144 ± 11 kg/m3 and the mass density (313.15 K, Weighing bottle method, w1 = 0.2579) worked out at 1187.2 ± 12 kg/m3.
Take `[Cl-].[K+]` [potassium chloride] + O: the viscosity is given as 0.8122 ± 0.081 mPa·s (298.15 K, w1 = 0.2672) and 0.6778 ± 0.068 mPa·s (313.15 K, w1 = 0.29). The mass density runs as follows: (298.15 K, Weighing bottle method, w1 = 0.2672) 1180 ± 12 kg/m3; (313.15 K, Weighing bottle method, w1 = 0.29) 1192 ± 12 kg/m3.
Take `O=S(=O)([O-])[O-].[K+].[K+]` [potassium sulfate] + O: the viscosity worked out at 1.015 ± 0.1 mPa·s (298.15 K, w1 = 0.1156) and 0.7917 ± 0.08 mPa·s (313.15 K, w1 = 0.1337). Also, the mass density amounted to 1084.3 ± 11 kg/m3 (298.15 K, weighing bottle method, w1 = 0.1156) and 1097.7 ± 11 kg/m3 (313.15 K, weighing bottle method, w1 = 0.1337).

These data come from the NIST ThermoML archive (doi:10.1016/j.fluid.2017.04.010).
